Data reported in EP2812315B1, “PYRROLIC DERIVATIVES, PROCESSES FOR PREPARING THE SAME AND THEIR USES AS A DRUG” (Universite Joseph Fourier, priority 2012, dated 2013).
In brackets after ≈: the same amount, converted by molar mass.

Key:
Assay type in all cases: cell-based
[1] = system: Staphylococcus aureus (MSSA476); assay: Other MIC determination, microdilution method (CLSI M07-A9) with modifications; settings: 10^6 CFU/ml, 18h at 37 °C
Procedure: (§1) The microdilution method recommended by the Clinical and Laboratory Standard Institute [M07-A9, Vol.32, N°2] was used with the following modifications.
(§2) Bacterial inocula were prepared in Mueller Hinton broth (MH2, BioMérieux, Marcy L'Etoile, France). They were dispensed in 96 well microtiter plates (10^6 CFU/ml of final inoculum, 192 µL per well).
(§3) To avoid cross-contaminations in microtiter plates, one row was left blank between each strain tested. Microplates were incubated for 18h at 37 °C in ambient air. Then MICs were read visually and, in case of visual reading difficulties, confirmed using a spectrophotometer at a wavelength of 630 nm (BioTek® EL808 Absorbance Microplate Reader). MICs corresponded to the minimum pyrrolic compound concentrations that allowed complete visual growth inhibition of bacteria. Drug-free cultures served as growth controls.
(§4) We used four Staphylococcus aureus strains. Two reference strains were provided by the French reference center for Staphylococcus spp. (Lyon, France), including one methicillin-susceptible (MSSA 476) and one methicillin-resistant (MRSA 252) S. aureus strains. The two remaining S. aureus strains were purchased from the CRBIP (Centre de Ressources Biologiques de l'Institut Pasteur): a vancomycin-intermediate strain (ATCC 106414) and a S. aureus strain (SA-1199B) resistant to fluoroquinolones due to overexpression of the NorA multidrug efflux pump. Coagulase-negative Staphylococcus strains included three reference strains purchased from CRBIP: a methicillin-susceptible S. epidermidis strain (ATCC 12228), a methicillin-resistant S. epidermidis strain (ATCC 49461), and a methicillin-susceptible S. sciuri strain (ATCC 29061). We also used 37 clinical strains belonging to the following coagulase-negative Staphylococcus species: S. arlettae (two strains), S. capitis (nine strains), S. epidermidis (one strain), S. haemolyticus (six strains), S. hominis (eight strains), S. lugdunensis (one strain), S. massiliensis (one strain), S. pettenkoferi (two strains), S. saprophyticus (two strains), S. simulans (one strain), and S. warneri (four strains) . Identification of the clinical strains was first obtained using VITEK® 2 System (Biomérieux) and confirmed by amplification and sequencing of the tuf gene (Reference: Bergeron, M., O. Dauwalder, M. Gouy, A.-M. Freydiere, M. Bes, H. Meugnier, Y. Benito, J. Etienne, G. Lina, F. Vandenesch, and S. Boisset. Species identification of staphylococci by amplification and sequencing of the tuf gene compared to the gap gene and by matrix-assisted laser desorption ionization time-of-flight mass spectrometry, Eur. J. Clin. Microbial. Infect. Dis. 2011, 30, 343-354).
(§5) The activity of pyrrolic compounds 3c, 3e-3j and 3n was first tested against 12 Staphylococcus sp. strains, including 7 reference strains and five clinical strains. The MICs of these compounds against Staphylococcus aureus ATCC 106414 (VISA) and Staphylococcus epidermidis ATCC 12228 are in accordance with those described in Tables I and II.

[2] = system: Staphylococcus aureus (MRSA 252); assay: as above; settings: 10^6 CFU/ml, 18h at 37 °C
Procedure: as §1, §2, §3, §4, §5

[3] = system: Staphylococcus capitis (CHUG-Scapi1); assay: as above; settings: 10^6 CFU/ml, 18h at 37 °C
Procedure: as §1, §2, §3, §4, §5

[4] = system: Staphylococcus pettenkoferi (CHUG-Spet1); assay: as above; settings: 10^6 CFU/ml, 18h at 37 °C
Procedure: as §1, §2, §3, §4, §5

[5] = system: Staphylococcus sciuri (ATCC 29061); assay: as above; settings: Mammaliicoccus sciuri, ATCC29061, 10^6 CFU/ml, 18h at 37 °C
Procedure: as §1, §2, §3, §4, §5

[6] = system: Staphylococcus warneri (CHUG-Swar1); assay: as above; settings: 10^6 CFU/ml, 18h at 37 °C
Procedure: as §1, §2, §3, §4, §5

[7] = system: Staphylococcus haemolyticus (CHUG-Shae1); assay: as above; settings: 10^6 CFU/ml, 18h at 37 °C
Procedure: as §1, §2, §3, §4, §5

[8] = system: Staphylococcus aureus (ATCC 106414, VISA); assay: as above; settings: 10^6 CFU/ml, 18h at 37 °C
Procedure: as §1, §2, §3, §4, §5

[9] = system: Staphylococcus hominis(CHUG-Shom1); assay: as above; settings: 10^6 CFU/ml, 18h at 37 °C
Procedure: as §1, §2, §3, §4, §5

[10] = system: Staphylococcus epidermidis (ATCC 12228); assay: as above; settings: ATCC12228, 10^6 CFU/ml, 18h at 37 °C
Procedure: as §1, §2, §3, §4, §5

[11] = system: Staphylococcus epidermidis (ATCC 49461); assay: as above; settings: ATCC49461, 10^6 CFU/ml, 18h at 37 °C
Procedure: as §1, §2, §3, §4, §5

[12] = system: Acinetobacter baumanii ATCC 19606; assay: MIC determination, microdilution method (CLSI M07-A8); settings: Acinetobacter baumannii, ATCC19606; Acinetobacter baumanii ATCC 19606; 18 hours incubation; read-out: MIC
Procedure: (§6) The microdilution method recommended by the Clinical and Laboratory Standard Institute [M07-A8, Vol.29, N°2] was used. The activity of pyrrolic compounds was tested against 29 bacterial strains belonging to 17 different species and 12 different genera (Staphylococcus, Streptococcus, Enterococcus, […], Bacillus, Haetttophilus, Escherichia, Klebsiella, Enterobacter, Serratia, Pseudomonas, and Acinetobacter). Bacterial inocula were prepared in Mueller Hinton broth (MH2, bioMérieux, Marcy L'Etoile, France), supplemented with 10% sheep blood for fastidious species (i.e., Streptococcus pneumoniae and Haemophilus influenzae). They were dispensed in 96 well microtiter plates (5 x 10^5 CFU/mL of final inoculum). Pyrrolic compounds were added to the wells as to obtain two-fold serial concentrations (0.25-64 mg/L). Plates were incubated at 37°C, in 5% CO2 enriched atmosphere for fastidious species only. MICs were read after 18 hours incubation of cultures, and corresponded to the minimum pyrrolic compound concentration that allowed complete visual growth inhibition of bacteria. Drug-free cultures served as growth controls. Cultures receiving gentamicine, ciprofloxacine or cefotaxime served as positive controls.

[13] = system: Escherichia coli ATCC 25922; assay: as above; settings: ATCC25922; Escherichia coli ATCC 25922; 18 hours incubation; read-out: MIC
Procedure: as §6

[14] = system: Enterobacter cloacae ATCC13047; assay: as above; settings: Enterobacter cloacae ATCC13047; 18 hours incubation; read-out: MIC
Procedure: as §6

[15] = system: Pseudomonas aeruginosa CIP 5933; assay: as above; settings: CIP5933; Pseudomonas aeruginosa CIP 5933; 18 hours incubation; read-out: MIC
Procedure: as §6

[16] = system: Staphylococcus aureus ATCC 29213; assay: as above; settings: ATCC29213; Staphylococcus aureus ATCC 29213; 5 x 10^5 CFU/mL; 18 hours incubation; read-out: MIC
Procedure: as §6

[17] = system: Serratia marcescens CIP 103551; assay: as above; settings: CIP103551; Serratia marcescens CIP 103551; 18 hours incubation; read-out: MIC
Procedure: as §6

Compound | MIC [1] | MIC [2] | MIC [3] | MIC [4] | MIC [5] | MIC [6] | MIC [7] | MIC [8] | MIC [9] | MIC [10] | MIC [11] | MIC [12] | MIC [13] | MIC [14] | MIC [15] | MIC [16] | MIC [17]
COC(=O)c1cccc(C(c2[nH]c(C)c(C(C)=O)c2C)c2[nH]c(C)c(C(C)=O)c2C)c1 [3j, Methyl-3-[bis(4-acetyl-3,5-dimethyl-1H-pyrrol-2-yl)methyl]benzoate] | 4 µg/mL (≈ 9.51 µM) | 8 µg/mL (≈ 19 µM) | 16 µg/mL (≈ 38 µM) | > 32 µg/mL | > 32 µg/mL | 16 µg/mL (≈ 38 µM) | 16 µg/mL (≈ 38 µM) | 4 µg/mL (≈ 9.51 µM) | > 32 µg/mL | > 32 µg/mL | > 32 µg/mL | > 32 µg/mL | > 32 µg/mL | > 32 µg/mL | > 32 µg/mL | 2 µg/mL (≈ 4.76 µM) | > 32 µg/mL
CC(=O)c1c(C)[nH]c(C(c2[nH]c(C)c(C(C)=O)c2C)c2cccc3ccccc23)c1C [3h] | 1 µg/mL (≈ 2.42 µM) | 2 µg/mL (≈ 4.85 µM) | 4 µg/mL (≈ 9.7 µM) | > 32 µg/mL | > 32 µg/mL | 2 µg/mL (≈ 4.85 µM) | 4 µg/mL (≈ 9.7 µM) | 1 µg/mL (≈ 2.42 µM) | > 32 µg/mL | > 32 µg/mL | > 32 µg/mL | > 128 µg/mL | > 128 µg/mL | > 128 µg/mL | > 128 µg/mL | 1 µg/mL (≈ 2.42 µM) | > 128 µg/mL
CC(=O)c1c(C)[nH]c(C(c2[nH]c(C)c(C(C)=O)c2C)c2csc3ccc(Br)cc23)c1C [3n] | 0.125 µg/mL (≈ 0.251 µM) | 0.125 µg/mL (≈ 0.251 µM) | 0.125 µg/mL (≈ 0.251 µM) | > 32 µg/mL | > 32 µg/mL | 0.25 µg/mL (≈ 0.503 µM) | 1 µg/mL (≈ 2.01 µM) | 0.125 µg/mL (≈ 0.251 µM) | > 32 µg/mL | > 32 µg/mL | > 32 µg/mL |  |  |  |  |  | 
CC(=O)c1c(C)[nH]c(C(c2cc3ccccc3s2)c2[nH]c(C)c(C(C)=O)c2C)c1C [3f] | 4 µg/mL (≈ 9.56 µM) | 4 µg/mL (≈ 9.56 µM) | > 32 µg/mL | > 32 µg/mL | > 32 µg/mL | 4 µg/mL (≈ 9.56 µM) | > 32 µg/mL | 2 µg/mL (≈ 4.78 µM) | > 32 µg/mL | > 32 µg/mL | > 32 µg/mL | > 128 µg/mL | > 128 µg/mL | > 128 µg/mL | > 128 µg/mL | 2 µg/mL (≈ 4.78 µM) | > 128 µg/mL
CC(=O)c1c(C)[nH]c(C(c2[nH]c(C)c(C(C)=O)c2C)c2csc3ccccc23)c1C [3i] | 0.5 µg/mL (≈ 1.19 µM) | 1 µg/mL (≈ 2.39 µM) | 1 µg/mL (≈ 2.39 µM) | > 32 µg/mL | > 32 µg/mL | 1 µg/mL (≈ 2.39 µM) | 4 µg/mL (≈ 9.56 µM) | 0.5 µg/mL (≈ 1.19 µM) | > 32 µg/mL | > 32 µg/mL | > 32 µg/mL | > 128 µg/mL | > 128 µg/mL | > 128 µg/mL | > 128 µg/mL | 0.5 µg/mL (≈ 1.19 µM) | > 128 µg/mL
CC(=O)c1c(C)[nH]c(C(c2cc3ccccc3o2)c2[nH]c(C)c(C(C)=O)c2C)c1C [3e] | 4 µg/mL (≈ 9.94 µM) | 8 µg/mL (≈ 19.9 µM) | 8 µg/mL (≈ 19.9 µM) | > 32 µg/mL | > 32 µg/mL | 8 µg/mL (≈ 19.9 µM) | > 32 µg/mL | 4 µg/mL (≈ 9.94 µM) | > 32 µg/mL | > 32 µg/mL | > 32 µg/mL | > 128 µg/mL | > 128 µg/mL | > 128 µg/mL | > 128 µg/mL | 2 µg/mL (≈ 4.97 µM) | > 128 µg/mL
CC(=O)c1c(C)[nH]c(C(c2ccc(Cl)cc2)c2[nH]c(C)c(C(C)=O)c2C)c1C [3c] | 4 µg/mL (≈ 10.1 µM) | 8 µg/mL (≈ 20.2 µM) | 8 µg/mL (≈ 20.2 µM) | > 32 µg/mL | > 32 µg/mL | 8 µg/mL (≈ 20.2 µM) | 16 µg/mL (≈ 40.3 µM) | 4 µg/mL (≈ 10.1 µM) | > 32 µg/mL | > 32 µg/mL | > 32 µg/mL | > 128 µg/mL | > 128 µg/mL | > 128 µg/mL | > 128 µg/mL | 2 µg/mL (≈ 5.04 µM) | > 128 µg/mL
CC(=O)c1c(C)[nH]c(C(c2ccc(F)cc2)c2[nH]c(C)c(C(C)=O)c2C)c1C [3g] | 4 µg/mL (≈ 10.5 µM) | 8 µg/mL (≈ 21 µM) | 8 µg/mL (≈ 21 µM) | > 32 µg/mL | > 32 µg/mL | 8 µg/mL (≈ 21 µM) | 16 µg/mL (≈ 42.1 µM) | 4 µg/mL (≈ 10.5 µM) | > 32 µg/mL | > 32 µg/mL | > 32 µg/mL | > 32 µg/mL | > 32 µg/mL | > 32 µg/mL | > 32 µg/mL | 1 µg/mL (≈ 2.63 µM) | > 32 µg/mL
